Assays:
[1] = target: T1, HSPA2 (Homo sapiens, UniProt P54652); experiment: FP peptide binding assay, HSPA2 SBD; conditions: 1 μM HSP70 SBD, 10 nM fluorescent peptide, read-out: A2 IC50
T1 construct: His6 (N, cleaved yes); made in house; host or cells: E. coli (Codon plus)

[2] = system: U251 glioblastoma cells; experiment: Cellular synergy, U251 growth rate (incucyte confluence); type: cell-based; conditions: 10 μM of 8 (FIG. 12)
[3] = target: T2, HSPA1A (Homo sapiens, UniProt P0DMV8); experiment: FP peptide binding assay, HSPA1A SBD; set-up: His6 (N, cleaved yes); made in house; host or cells: E. coli (Codon plus); conditions: 1 μM HSP70 SBD, 10 nM fluorescent peptide, read-out: A1A IC50
Target sequence in this assay (P0DMV8 394-509 limits assumed): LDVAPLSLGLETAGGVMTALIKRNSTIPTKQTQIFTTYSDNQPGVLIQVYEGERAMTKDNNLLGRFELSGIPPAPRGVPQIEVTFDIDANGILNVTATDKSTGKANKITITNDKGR

[4] = target: T3, HSA (Homo sapiens, UniProt P02768); experiment: Serum binding assay (dansylamide and BD140 probes); type: in vitro ADME; conditions: 50 μM compound, 20 μM HSA
T3 construct: Each sample contained 20 μM HSA in PBS at pH 7.4; from tissue; host or cells: human serum
T3 sequence (P02768 25-609): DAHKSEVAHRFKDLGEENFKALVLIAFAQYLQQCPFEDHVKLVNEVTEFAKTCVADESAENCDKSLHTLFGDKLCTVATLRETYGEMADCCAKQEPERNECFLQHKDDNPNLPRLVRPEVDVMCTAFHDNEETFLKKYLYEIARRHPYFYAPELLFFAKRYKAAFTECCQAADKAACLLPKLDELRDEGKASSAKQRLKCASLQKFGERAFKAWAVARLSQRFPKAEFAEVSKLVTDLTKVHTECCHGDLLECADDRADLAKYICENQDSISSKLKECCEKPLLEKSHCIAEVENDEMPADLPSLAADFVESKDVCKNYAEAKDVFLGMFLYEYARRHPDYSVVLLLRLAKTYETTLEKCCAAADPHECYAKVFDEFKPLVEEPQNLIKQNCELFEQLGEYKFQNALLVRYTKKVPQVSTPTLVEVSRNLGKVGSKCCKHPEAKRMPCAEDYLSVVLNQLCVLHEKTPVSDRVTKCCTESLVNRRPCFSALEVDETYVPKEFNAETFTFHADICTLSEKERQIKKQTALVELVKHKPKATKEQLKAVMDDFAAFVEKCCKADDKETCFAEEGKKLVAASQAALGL

[5] = target: T4, HSPA6 (Homo sapiens, UniProt P17066); experiment: FP peptide binding assay, HSPA6 SBD; conditions: 1 μM HSP70 SBD, 10 nM fluorescent peptide, read-out: A6 IC50
T4 construct: His6 (N, cleaved yes); made in house; host or cells: E. coli (Codon plus)
T4 sequence (P17066 396-511 limits assumed): as the sequence (P0DMV8 394-509 limits assumed) above, with A19T, K22Q, S25A, I34T, L46F, N94S, K100R counted along it

[6] = system: 60 cancer cell lines; experiment: NCI-60 human tumor cell line screen; type: cell-based; conditions: fixed concentration of 10 μM (FIG. 8)
[7] = system: cancer cell lines; experiment: ZIP synergy with CB5083, growth inhibition; type: cell-based; conditions: combination of CB5083 and 8 (FIG. 9A)
[8] = target: T5, HSPA9 (Homo sapiens, UniProt P38646); experiment: FP peptide binding assay, HSPA9 SBD; conditions: 1 μM HSP70 SBD, 10 nM fluorescent peptide, read-out: A9 IC50
T5 construct: His6 (N, cleaved yes); made in house; host or cells: E. coli (Codon plus)
T5 sequence (P38646 442-679 limits assumed): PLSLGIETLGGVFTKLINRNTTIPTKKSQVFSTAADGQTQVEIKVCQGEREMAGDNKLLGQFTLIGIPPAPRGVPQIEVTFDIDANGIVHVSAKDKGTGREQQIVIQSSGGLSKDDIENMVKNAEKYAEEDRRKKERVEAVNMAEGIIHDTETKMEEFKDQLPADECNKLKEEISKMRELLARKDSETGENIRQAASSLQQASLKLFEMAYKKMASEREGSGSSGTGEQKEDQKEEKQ

[9] = target: T6, HSPA8 (Homo sapiens, UniProt P11142); experiment: FP peptide binding assay, HSPA8 SBD; set-up: His6 (N, cleaved yes); made in house; host or cells: E. coli (Codon plus); conditions: 1 μM HSP70 SBD, 10 nM fluorescent peptide, read-out: A8 IC50
Target sequence in this assay (P11142 394-509 limits assumed): as the sequence (P0DMV8 394-509 limits assumed) above, with A4T, L10I, A19V, S25T, I34T, R65K, S69T, T96S, T98V, A105E counted along it

[10] = target: HSPA5 (Homo sapiens, UniProt P11021); experiment: FP peptide binding assay, HSPA5 (HSPA5-NRLLLTG interaction); set-up: His6 (N, cleaved yes); made in house; host or cells: E. coli (Codon plus); conditions: FP, 1 μM HSP70 SBD, 10 nM fluorescent peptide; read-out: A5 IC50
Sequence of HSPA5 (P11021 419-632): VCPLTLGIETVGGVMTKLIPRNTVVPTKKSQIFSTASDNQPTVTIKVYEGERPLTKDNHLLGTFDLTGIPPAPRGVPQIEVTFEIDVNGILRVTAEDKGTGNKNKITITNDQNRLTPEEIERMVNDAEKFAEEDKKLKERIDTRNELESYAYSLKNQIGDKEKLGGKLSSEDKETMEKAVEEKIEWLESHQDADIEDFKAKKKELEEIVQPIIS

[11] = Solubility (comparison in words); type: physicochemical
[12] = target: T7, HspA5 substrate binding domain (Homo sapiens, UniProt P11021); experiment: 15N-HSQC NMR of HspA5 substrate binding domain; conditions: FIG. 11
T7 construct: HspA5SBD); His6-Smt3 (N, cleaved yes); made in house; host or cells: E. coli BL21-Codon+
T7 sequence (P11021 418-635): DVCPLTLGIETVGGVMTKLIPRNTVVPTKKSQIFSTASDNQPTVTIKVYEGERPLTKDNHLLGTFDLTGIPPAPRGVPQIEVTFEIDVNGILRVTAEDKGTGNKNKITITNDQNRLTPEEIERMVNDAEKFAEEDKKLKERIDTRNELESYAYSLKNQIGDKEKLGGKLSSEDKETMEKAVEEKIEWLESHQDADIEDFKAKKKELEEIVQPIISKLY

[13] = system: canonical human HSP70 isoforms; experiment: FP binding of fluorescent peptides to HSP70 substrate binding domains; conditions: FIG. 4A
[14] = target: T6, HSPA8; conditions: read-out: NRLLLTG affinity for HSPA8; reported in the literature; cited from earlier work
Target sequence in this assay (P11142 whole entry): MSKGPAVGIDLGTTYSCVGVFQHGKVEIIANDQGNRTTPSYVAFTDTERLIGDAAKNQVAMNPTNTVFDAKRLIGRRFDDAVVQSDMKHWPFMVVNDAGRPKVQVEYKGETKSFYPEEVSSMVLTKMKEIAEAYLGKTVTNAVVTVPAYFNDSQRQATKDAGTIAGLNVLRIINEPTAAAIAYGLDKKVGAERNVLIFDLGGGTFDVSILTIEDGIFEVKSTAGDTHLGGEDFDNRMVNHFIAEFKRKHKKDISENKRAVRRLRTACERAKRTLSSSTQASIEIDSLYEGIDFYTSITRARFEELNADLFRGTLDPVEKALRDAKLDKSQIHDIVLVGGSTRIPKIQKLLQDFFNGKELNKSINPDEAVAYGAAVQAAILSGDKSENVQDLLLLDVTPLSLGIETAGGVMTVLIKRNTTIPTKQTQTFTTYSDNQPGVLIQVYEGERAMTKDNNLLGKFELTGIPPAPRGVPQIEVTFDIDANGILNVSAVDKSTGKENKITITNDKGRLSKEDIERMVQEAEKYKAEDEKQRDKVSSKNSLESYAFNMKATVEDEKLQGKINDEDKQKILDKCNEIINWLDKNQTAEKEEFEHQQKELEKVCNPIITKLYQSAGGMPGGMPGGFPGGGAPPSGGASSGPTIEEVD

[15] = target: T2, HSPA1A; conditions: read-out: NRLLLTG affinity for HSPA1A; reported in the literature; cited from earlier work
Target sequence in this assay (P0DMV8 whole entry): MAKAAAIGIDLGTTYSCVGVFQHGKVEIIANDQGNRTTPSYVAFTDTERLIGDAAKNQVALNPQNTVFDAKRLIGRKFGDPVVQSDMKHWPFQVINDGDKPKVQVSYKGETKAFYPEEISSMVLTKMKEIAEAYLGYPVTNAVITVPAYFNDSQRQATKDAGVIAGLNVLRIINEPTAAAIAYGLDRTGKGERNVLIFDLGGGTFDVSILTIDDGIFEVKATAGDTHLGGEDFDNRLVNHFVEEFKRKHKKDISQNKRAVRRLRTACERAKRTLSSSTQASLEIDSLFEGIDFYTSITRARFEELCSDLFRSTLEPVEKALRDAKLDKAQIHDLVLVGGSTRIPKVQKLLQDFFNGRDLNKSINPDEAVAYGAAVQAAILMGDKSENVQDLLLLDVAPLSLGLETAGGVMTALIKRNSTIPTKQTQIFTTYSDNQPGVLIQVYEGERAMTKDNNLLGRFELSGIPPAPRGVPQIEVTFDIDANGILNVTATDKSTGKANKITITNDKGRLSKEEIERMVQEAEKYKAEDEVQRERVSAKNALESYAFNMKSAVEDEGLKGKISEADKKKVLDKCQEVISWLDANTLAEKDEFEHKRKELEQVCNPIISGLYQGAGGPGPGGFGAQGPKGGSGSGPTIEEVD

T1 sequence (P54652 397-512 limits assumed): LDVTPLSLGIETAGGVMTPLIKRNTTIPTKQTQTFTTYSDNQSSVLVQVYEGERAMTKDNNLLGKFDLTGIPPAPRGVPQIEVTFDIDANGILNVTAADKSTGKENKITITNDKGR

Compound: CC(C)[C@H](NC(=O)c1cc2ccccc2[nH]1)C(=O)Nc1nccs1 [Compound 8]
- IC50 [1]: 13.9 µM
- growth inhibition with ER stress inducers MG132, thapsigargin, and CB5082 [2]: inhibits growth of these cells in a synergistic manner
- IC50 [3]: > 50 µM
- Serum Binding [4]: <10%
- IC50 [5]: > 50 µM
- growth inhibition in NCI-60 panel [6]: did not indicate significant decrease in growth rates
- ZIP synergy with p97 inhibitor CB5083 [7]: growth inhibition was observed when both compounds are present a concentration where neither showed activity independently
- IC50 [8]: 4.3 µM
- IC50 [9]: 43.5 µM

Compound: CC(C)[C@H](NC(=O)c1cccs1)C(=O)O [Compound 17, (thiophene-2-carbonyl)-L-valine]
- IC50 [10]: > 50 µM

Compound: CC(=O)c1ccc2[nH]c(C(=O)N[C@H](C(=O)Nc3nccs3)C(C)C)cc2c1 [Compound 24, (S)-5-acetyl-N-(3-methyl-1-oxo-1-(thiazol-2-ylamino)butan-2-yl)-1H-indole-2-carboxamide]
- solubility (comparison) [11]: much more soluble than compound 8
- binding to HSPA5 SBD by HSQC [12]: binds to HSPA5 in a manner that stabilizes its structure
- IC50 [10]: 0.43 ± 0.09 µM

Compound: FITC-NR: Fluorescent peptide (FITC-NRLLLTG) used as FP probe
- binding of fluorescent peptide to HSP70 isoforms [13]: only bound tightly to HSPA5 and HSPA9

Compound: NRLLLTG
- Kd [14]: 10 µM
- Kd [15]: 10 µM

Compound: P1: fluorescent peptide FAM-ALLLSAPRR that binds human HSP70 isoforms [Compound P1]
- binding of fluorescent peptide to HSP70 isoforms [13]: bound with high affinity to all isoforms except HSPA1L
